The text below walks through data of patent US20250388565A1, “ESTROGEN RECEPTOR ALPHA DEGRADERS AND METHODS OF USE THEREOF” (Relay Therapeutics, Inc., priority 2022, published 2025).

This test concerns the target T1, ERα protein (HiBiT-tagged) in ESR1_HiBiT KI MCF7 cells (Homo sapiens, UniProt P03372).
T1 sequence (P03372 1-595): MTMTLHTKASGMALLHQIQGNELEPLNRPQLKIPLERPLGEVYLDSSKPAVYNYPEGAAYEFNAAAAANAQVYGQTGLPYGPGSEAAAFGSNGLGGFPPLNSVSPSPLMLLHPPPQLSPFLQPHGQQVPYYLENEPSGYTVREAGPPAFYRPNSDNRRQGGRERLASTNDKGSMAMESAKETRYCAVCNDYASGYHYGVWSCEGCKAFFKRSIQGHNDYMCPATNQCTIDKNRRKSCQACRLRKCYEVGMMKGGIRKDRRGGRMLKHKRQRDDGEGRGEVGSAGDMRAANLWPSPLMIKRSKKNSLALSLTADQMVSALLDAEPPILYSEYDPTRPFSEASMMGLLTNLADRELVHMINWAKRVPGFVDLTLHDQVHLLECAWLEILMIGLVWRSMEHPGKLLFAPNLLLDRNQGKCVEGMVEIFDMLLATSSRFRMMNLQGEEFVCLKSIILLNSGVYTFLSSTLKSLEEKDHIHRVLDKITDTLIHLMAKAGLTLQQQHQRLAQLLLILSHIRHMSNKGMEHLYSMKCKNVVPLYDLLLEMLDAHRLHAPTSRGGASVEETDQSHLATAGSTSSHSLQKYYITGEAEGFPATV
As to the kind of experiment: Nano Glo HiBiT Lytic Degradation Assay. In kind it is cell-based. As to conditions: 6 hours with compound, 14-point dose response 1:3, bell-shape curve fit, half-maximal effect of first Hill model, read-out: MCF7 ESR1 HiBiT - (DC50). In a few lines:
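Lytic Nano-Glo HiBiT luminescence quantified ERα remaining after a 6 h, 37° C compound exposure of MCF7 cells carrying endogenous HiBiT-tagged ESR1. Dosing used 14 threefold dilutions from a 10 mM DMSO stock (0.1% DMSO final), run in duplicate. Signals were corrected for cell-free background and expressed relative to DMSO, and DC50 came from a bell-shaped curve fit (first Hill model half-maximum).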
In general terms: The HiBiT peptide binds its large partner to form an active luciferase.
As for `Cc1cc(N2CCC(CN3CCN(c4ccc5c(c4)CN([C@H]4CCC(=O)NC4=O)C5=O)CC3)CC2)ccc1[C@@H]1c2ccc(O)cc2CC[C@@H]1C1CCCCC1` [Compound I-141, (S)-3-(5-(4-((1-(4-((1R,2R)-2-cyclohexyl-6-hydroxy-1,2,3,4-tetrahydronaphthalen-1-yl)-3-methylphenyl)piperidin-4-yl)methyl)piperazin-1-yl)-1-oxoisoindolin-2-yl)piperidine-2,6-dione], the DC50 was found to be 2 nM. `Cc1cc(N2CCC3(CCN(CC4CCN(c5ccc([C@@H]6c7ccc(O)cc7CO[C@@H]6c6ccccc6)cc5)CC4)C3)CC2)ccc1N1CCC(=O)NC1=O` [Compound I-392, 1-(4-(2-((1-(4-((3S,4R)-7-hydroxy-3-phenylisochroman-4-yl)phenyl)piperidin-4-yl)methyl)-2,8-diazaspiro[4.5]decan-8-yl)-2-methylphenyl)dihydropyrimidine-2,4 (1H,3H)-dione]: the DC50 stood at 0.13 nM. For `Cc1ccccc1[C@@H]1CC(F)(F)c2cc(O)ccc2[C@@H]1c1ccc(N2CCC(CN3CCN(c4ccc5c(c4)CN([C@H]4CCC(=O)NC4=O)C5=O)CC3)CC2)cc1` [Compound I-323, (S)-3-(5-(4-((1-(4-((1S,2R)-4,4-difluoro-6-hydroxy-2-(o-tolyl)-1,2,3,4-tetrahydronaphthalen-1-yl)phenyl)piperidin-4-yl)methyl)piperazin-1-yl)-1-oxoisoindolin-2-yl)piperidine-2,6-dione] the value was 33 nM; for `Cn1c(=O)n([C@@H]2CCC(=O)NC2=O)c2ccc(N3CCN(CC4CCN(c5ccc([C@@H]6c7ccc(O)cc7CC[C@@H]6c6ccccc6)cc5)CC4)CC3)cc21` (single isomer, unassigned) [Compound I-276], 0.5 nM. Turning to `O=C1CC[C@H](N2Cc3cc(N4CCN(CC5CCN(c6ccc([C@@H]7c8ccc(O)cc8CO[C@@H]7C7CCC7)cc6)CC5)CC4)ccc3C2=O)C(=O)N1` [Compound I-245, (S)-3-(5-(4-((1-(4-((3R,4R)-3-cyclobutyl-7-hydroxyisochroman-4-yl)phenyl)piperidin-4-yl)methyl)piperazin-1-yl)-1-oxoisoindolin-2-yl)piperidine-2,6-dione], the DC50 is 0.23 nM. As to `Cc1ccccc1[C@H]1CC(F)(F)c2cc(O)ccc2[C@H]1c1ccc(N2CCC(CN3CCN(c4ccc5c(c4)CN([C@H]4CCC(=O)NC4=O)C5=O)CC3)CC2)cc1` [Compound I-322, (S)-3-(5-(4-((1-(4-((1R,2S)-4,4-difluoro-6-hydroxy-2-(o-tolyl)-1,2,3,4-tetrahydronaphthalen-1-yl)phenyl)piperidin-4-yl)methyl)piperazin-1-yl)-1-oxoisoindolin-2-yl)piperidine-2,6-dione], the DC50 was 0.56 nM.

For the compound `C[C@@]1(c2ccccc2)CCc2cc(O)ccc2[C@@H]1c1ccc(N2CCC(CN3CCN(c4ccc5c(c4)CN([C@H]4CCC(=O)NC4=O)C5=O)CC3)CC2)cc1` [Compound I-148, (S)-3-(5-(4-((1-(4-((1R,2R)-6-hydroxy-2-methyl-2-phenyl-1,2,3,4-tetrahydronaphthalen-1-yl)phenyl)piperidin-4-yl)methyl)piperazin-1-yl)-1-oxoisoindolin-2-yl)piperidine-2,6-dione], the DC50 is 424 nM. For `O=C1CC[C@H](N2Cc3cc(N4CCN(CC5CCN(c6ccc([C@H]7c8ccc(O)cc8CO[C@@H]7C7CCCCC7)cc6)CC5)CC4)ccc3C2=O)C(=O)N1` [Compound I-248, (S)-3-(5-(4-((1-(4-((3R,4S)-3-cyclohexyl-7-hydroxyisochroman-4-yl)phenyl)piperidin-4-yl)methyl)piperazin-1-yl)-1-oxoisoindolin-2-yl)piperidine-2,6-dione], the DC50 stood at 21 nM.

Take `O=C1CC[C@H](N2Cc3cc(N4CCN(CC5CCN(c6ccc([C@H]7c8ccc(O)cc8CC[C@H]7C7CCCCC7)cc6)CC5)CC4)ccc3C2=O)C(=O)N1` [Compound I-5, (3S)-3-[5-[4-[[1-[4-[(1S,2S)-2-cyclohexyl-6-hydroxy-tetralin-1-yl]phenyl]-4-piperidyl]methyl]piperazin-1-yl]-1-oxo-isoindolin-2-yl]piperidine-2,6-dione]: the DC50 was at least 10000 nM. With `Cc1cc(N2CCC(CN3CCN(c4ccc5c(c4)CN([C@H]4CCC(=O)NC4=O)C5=O)CC3)CC2)ccc1[C@H]1c2ccc(O)cc2CC[C@H]1C1CCCCC1` [Compound I-140, (S)-3-(5-(4-((1-(4-((1S,2S)-2-cyclohexyl-6-hydroxy-1,2,3,4-tetrahydronaphthalen-1-yl)-3-methylphenyl)piperidin-4-yl)methyl)piperazin-1-yl)-1-oxoisoindolin-2-yl)piperidine-2,6-dione], the DC50 was at least 10000 nM. Take `O=C1CC[C@H](N2Cc3cc(N4CCN(CC5CCN(c6ccc([C@H]7c8ccc(O)cc8CC[C@H]7c7cccc(OC(F)(F)F)c7)cc6)CC5)CC4)ccc3C2=O)C(=O)N1` (single isomer, unassigned) [Compound I-110]: the DC50 is 0.155 nM.

As for `O=C1CC[C@H](N2Cc3cc(N4CCN(CC5CCN(c6ccc(C7c8ccc(O)cc8CCN7C7CCCCC7)cc6)CC5)CC4)ccc3C2=O)C(=O)N1` (stereo partly drawn) [Compound I-9, (3S)-3-(5-(4-((1-(4-(2-cyclohexyl-6-hydroxy-1,2,3,4-tetrahydroisoquinolin-1-yl)phenyl)piperidin-4-yl)methyl)piperazin-1-yl)-1-oxoisoindolin-2-yl)piperidine-2,6-dione], the DC50 came to 11 nM. The result for `O=C1CC[C@H](N2Cc3cc(N4CCN(CC5CCN(c6ccc([C@H]7c8ccc(O)cc8CO[C@H]7CC7CCCC7)cc6)CC5)CC4)ccc3C2=O)C(=O)N1` (single isomer, unassigned) [Compound I-233] reads 31 nM; that for `Cc1cc(F)c([C@H]2CC(F)(F)c3cc(O)ccc3[C@H]2c2ccc(N3CCC(CN4CCN(c5ccc6c(c5)CN([C@H]5CCC(=O)NC5=O)C6=O)CC4)CC3)cc2)cc1F` (single isomer, unassigned) [Compound I-324], 0.56 nM; that for `O=C1CC[C@H](N2Cc3cc(N4CCN(CC5CCN(c6ccc([C@@H]7c8ccc(O)cc8C(F)(F)C[C@@H]7c7ccc(F)cc7F)cc6)CC5)CC4)ccc3C2=O)C(=O)N1` [Compound I-318, (S)-3-(5-(4-((1-(4-((1R,2S)-2-(2,4-difluorophenyl)-4,4-difluoro-6-hydroxy-1,2,3,4-tetrahydronaphthalen-1-yl)phenyl)piperidin-4-yl)methyl)piperazin-1-yl)-1-oxoisoindolin-2-yl)piperidine-2,6-dione], 0.33 nM. On to `Cc1ccc([C@H]2CC(F)(F)c3cc(O)ccc3[C@H]2c2ccc(N3CCC(CN4CCN(c5ccc6c(c5)CN([C@H]5CCC(=O)NC5=O)C6=O)CC4)CC3)cc2)cc1` (single isomer, unassigned) [Compound I-320, (S)-3-(5-(4-((1-(4-((1*S, 2*R)-4,4-difluoro-6-hydroxy-2-(p-tolyl)-1,2,3,4-tetrahydronaphthalen-1-yl)phenyl)piperidin-4-yl)methyl)piperazin-1-yl)-1-oxoisoindolin-2-yl)piperidine-2,6-dione], for which the DC50 stood at 0.006 nM. Consider `O=C1CCC(N2Cc3cc(N4CCC(CN5CCC(c6ccc([C@H]7c8ccc(O)cc8CC[C@H]7c7ccccc7)cc6)CC5)CC4)ccc3C2=O)C(=O)N1` (single isomer, unassigned) [II-61], for which the DC50 was found to be 0.08 nM.

Take `Cc1cc(N2CCC(CN3CCN(c4ccc5c(c4)CN([C@H]4CCC(=O)NC4=O)C5=O)CC3)CC2)cc(F)c1[C@H]1c2ccc(O)cc2CC[C@H]1C1CCCCC1` (single isomer, unassigned) [Compound I-235]: the DC50 is at least 10000 nM.

With `Cc1cc(F)c([C@@H]2OCc3cc(O)ccc3[C@@H]2c2ccc(N3CCC(CN4CCN(c5ccc6c(c5)CN([C@H]5CCC(=O)NC5=O)C6=O)CC4)CC3)cc2)cc1F` [Compound I-370, (S)-3-(5-(4-((1-(4-((3R,4S)-3-(2,5-difluoro-4-methylphenyl)-7-hydroxyisochroman-4-yl)phenyl)piperidin-4-yl)methyl)piperazin-1-yl)-1-oxoisoindolin-2-yl)piperidine-2,6-dione], the DC50 stood at 3300 nM. `COc1cc(N2CCC(CN3CCN(c4ccc5c(c4)CN([C@H]4CCC(=O)NC4=O)C5=O)CC3)CC2)ccc1[C@H]1c2ccc(O)cc2CC[C@H]1c1ccccc1` [Compound I-143, (S)-3-(5-(4-((1-(4-((1R,2R)-6-hydroxy-2-phenyl-1,2,3,4-tetrahydronaphthalen-1-yl)-3-methoxyphenyl)piperidin-4-yl)methyl)piperazin-1-yl)-1-oxoisoindolin-2-yl)piperidine-2,6-dione]: the DC50 is at least 10000 nM.

`CC(C)C[C@@H]1CC(F)(F)c2cc(O)ccc2[C@@H]1c1ccc(N2CCC(CN3CCN(c4ccc5c(c4)CN([C@H]4CCC(=O)NC4=O)C5=O)CC3)CC2)cc1` [Compound I-220, (S)-3-(5-(4-((1-(4-((1S,2R)-4,4-difluoro-6-hydroxy-2-isobutyl-1,2,3,4-tetrahydronaphthalen-1-yl)phenyl)piperidin-4-yl)methyl)piperazin-1-yl)-1-oxoisoindolin-2-yl)piperidine-2,6-dione]: the DC50 amounted to 14 nM.

By DC50 is commonly meant the midpoint of the concentration-degradation curve.
